From patent US20030114504A1, “Compositions and methods for the treatment of cancer” (priority 2001, published 2003)

Columns and labels:
[1] = in vivo; details: Balb/c nu/nu nude, mouse, in vivo
Protocol: (§1) In vivo Antitumor Testing
(§2) Paclitaxel was dissolved in a 50/50 mixture of ethanol and Cremophor® and stored at 4° C.; final dilution of paclitaxel was obtained immediately before drug administration with NaCl 0.9%. 5-FU was dissolved in normal saline (NaCl 0.9%). […] The volume of all compounds injected was 0.01 ml/g of mouse weight.
(§3) Solid Tumor Xenografts in Nude Mice.
(§4) All solid tumors were maintained in Balb/c nu/nu nude mice. Tumors were propagated as subcutaneous transplants using tumor fragments obtained from donor mice. All tumor implants for efficacy testing were subcutaneous (sc).
(§5) The required number of animals needed to detect a meaningful response were grouped at the start of the experiment and each was given a subcutaneous implant of a tumor fragment (˜50 mg) with a 13-gauge trocar. For treatment of early-stage tumors, the animals were again grouped before distribution to the various treatment and control groups. For treatment of animals with advanced-stage disease, tumors were allowed to grow to the pre-determined size window (animals with tumors outside the range were excluded) and animals were evenly distributed to various treatment and control groups. Treatment of each animal was based on individual body weight. Treated animals were checked daily for treatment related toxicity/mortality. Each group of animals was weighed before the initiation of treatment (Wt1) and then again following the last treatment dose (Wt2). The difference in body weight (Wt2-Wt1) provides a measure of treatment-related toxicity.
(§6) Tumor response was determined by measurement of tumors with a caliper twice a week, until the tumors reach a predetermined “target” size of 1 g. Tumor weights (mg) were estimated from the Formula: […]
(§7) Antitumor activity was evaluated at the maximum tolerated dose (MTD) which is defined as the dose level immediately […] which excessive toxicity (i.e. more than one death) occurred. […] When death occured, the day of death was recorded.
(§8) Tumor response end-point was expressed in terms of tumor growth delay (T-C value), defined as the difference in time (days) required for the treated tumors (T) to reach a predetermined target size compared to those of the control group ®.
(§9) To estimate tumor cell kill, the tumor volume doubling time (TVDT) was first calculated with the Formula:
(§10) TVDT=Median time (days) for control tumors to reach target size−Median time (days) for control tumors to reach half the target size

[2] = system: Colo205 human colon carcinoma; assay: Colo205 xenograft in nude mice; details: for tumor regression: at MTD; for antitumor activity (in words): head-to-head at MTD
Protocol: as §1, §2, §3, §4, §5, §6, §7, §8, §9, §10

[3] = system: A2780 human ovarian carcinoma; assay: A2780 xenograft in nude mice; assay type: in vivo
[4] = system: A2780S cells; assay: Cell cycle analysis by flow cytometry; assay type: cell-based, human; details: 170 nM
Protocol: Log phase A2780s cells were plated overnight in 6 well plates. […] Cells were harvested by trypsinization followed by centrifugation. Cell pellets were then resuspended by vortexing in 1 ml 80% methanol and fixed overnight at −20° C. Cells were recovered by centrifugation and washed two times with 1 ml of PBS. Cells were resuspended in 1 ml PBS, 2% FBS, 0.25% Triton X-100 and incubated at 4° C. for 10 minutes. Cells were again recovered by centrifugation and resuspended in 50 μl PBS, 2% FBS, 0.1% Triton X-100. Anti-Phospho-Threonine Proline antibody (IgM, New England Biolabs #9391S) was added and the cells were incubated for 30 minutes at 4° C. Cells were washed with PBS, 2% FBS, 0.1% Triton X-100 and resuspended in 50 μl PBS, 2% FBS, 0.1% Triton X-100. FITC-anti-Mouse antibody (Pharmingen #12064D) was added and incubated for 30 minutes at 4° C. in the dark. Cells were washed with PBS, 2% FBS, 0.1% Triton X-100 and resuspended in Propidium Iodide/RNase in PBS (10 μg/ml PI, 100 μg/ml RNase (DNase free)) and incubated at 37° C. for 30 minutes in the dark. Samples were analyzed using a flow cytometer.

[5] = system: P388 mouse leukemia, Cyclin E transgenic mouse breast carcinoma, A2780, Colo205 and A431 tumor models; assay: Multiple murine and human tumor models in vivo; set-up: species or system mice
Description: The following tumors were used: A2780 human ovarian carcinoma, Br-cycE murine breast carcinoma, A431 human squamous cell carcinoma and Colo 205 colorectal carcinoma.
Compound 1 was compared head to head with flavopiridol in each of these models.

[6] = system: A2780 ovarian carcinoma cells; assay: Clonogenic growth assay and drug combination studies; assay type: cell-based, human; details: clonogenic assays, single agent
[7] = system: A2780S cells; assay: Inhibition of tumor cell proliferation in vitro, 72 hour treatment; assay type: cell-based; details: Homo sapiens
[8] = system: PARP cleavage in A2780S cells; assay: PARP cleavage by western blot; assay type: cell-based, human; details: 24 hour time point
Protocol: FIG. 3. […]. Protein extracts were then examined by western blot using an anti-PARP antibody (Clonetech). The arrow signifies caspase cleaved PARP protein fragment.
Compound treated A2780S cells were harvested at approximately 70% confluence and total protein was prepared by lysing the cells in RIPA [50 mM Tris (pH8), 150 mM NaCl, 1% NP-40, 0.5% Na-deoxycolate, 0.1% SDS, 0.1% Na3VO4, 0.1 mM NaF, 10 mM β-glycerophosphate, plus Complete® protease inhibitors (Boehringer Mannhiem)] buffer. Cell pellets were resuspended at a density of<2×10^7 cells/ml and incubated for 20 minutes on ice followed by a high speed 14,000 rpm centrifugation. The protein supernatant was then removed from the debris and protein content was quantitated using the Micro-BCA assay (Pierce). Treated extracts (25 microgram/lane) were then separated using a 10% SDS-polyacrylamide gel (10.5×14 cm). Proteins were then transferred from the gel to PVDF-membrane (Millipore) by exposure to […] in a semi-dry blotting apparatus (Hoeffer). PVDF protein blots were then blocked with 5% non-fat milk in TTBS (0.1% Tween 20 in Tris-buffered saline). […]. The blots were then washed three times with TTBS and developed with ECL-plus western blotting detection system (Amersham).

CC(C)(C)c1cnc(CSc2cnc(NC(=O)C3CCNCC3)s2)o1 [Compound 1, N-[5-[[[5-(1,1-Dimethylethyl)-2-oxazolyl]methyl]thio]-2-thiazolyl]-4-piperidinecarboxamide]
MTD at 8 days ([1]; ip): 36 mg/kg | log cell kill (LCK) ([2]; MTD of 36 mg/kg, IP, QD×8): > 2.0 LCK | tumor regression [2]: tumor regression | antitumor activity (in words) [2]: marked antitumor activity | schedule dependence of activity ([3]; IP): qdx8=qdx14>>>q2dx5=q4dx3 | efficacy ([3]; dosed IP, qdx8 schedule, multiple dose levels): curative efficacy | efficacy ([3]; dosed orally, qdx8 schedule): modest efficacy | efficacy ([3]; single 24 hour continuous infusion at the MTD): curative efficacy | % Apo (sub-G1 cells by DNA staining) ([4]; 8 hr. exposure): 6% | % G1 ([4]; 8 hr. exposure): 56% | % G2 ([4]; 8 hr. exposure): 22% | % M ([4]; 8 hr. exposure): 1% | % S ([4]; 8 hr. exposure): 15% | % Apo (sub-G1 cells by DNA staining) ([4]; 24 hr. exposure): 32 ± 12% | % G1 ([4]; 24 hr. exposure): 45% | % G2 ([4]; 24 hr. exposure): 9.7% | % M ([4]; 24 hr. exposure): 0.3% | % S ([4]; 24 hr. exposure): 8% | anti-tumor activity in vivo [5]: broad spectrum anti-tumor activity | drug exposure sufficient to elicit a maximal anti-proliferative response [6]: 8 h | IC90 [7]: 170 nM | PARP cleavage (caspase activation) [8]: Extensive cleavage

O=c1[nH]cc(F)c(=O)[nH]1 [Compound 5-FU, 5-fluorouracil, reference compound]
tumor regression [2]: failed to achieve tumor regression | antitumor activity (in words) [2]: considerably less active

CC(=O)O[C@H]1C(=O)[C@@]2(C)[C@H]([C@H](OC(=O)c3ccccc3)[C@]3(O)C[C@H](OC(=O)[C@H](O)[C@@H](NC(=O)c4ccccc4)c4ccccc4)C(C)=C1C3(C)C)[C@]1(OC(C)=O)CO[C@@H]1C[C@@H]2O [Paclitaxel, paclitaxel, reference compound]
MTD ([1]; iv): 36 mg/kg | antitumor activity (in words) [2]: comparable to Compound 1
